# Measured values as given in patent publication US10694724B2, “Transgenic mouse for the assessment of thyroid hormone (TH) action” (MAGYAR TUDOMÁNYOS AKADÉMIA KÍSÉRLETI ORVOSTUDOMÁNYI KUTATÓ …, priority 2014, dated 2020).
# “Also recorded” adds a separate entry of the source.
# What was measured:
# [1] = system: luciferase mRNA as a readout of TH action; experiment: Luciferase mRNA by TaqMan qPCR in the pituitary of line #23; assay type: in vivo, mouse; conditions: TaqMan assay
# Experimental: Expression was assessed with TaqMan assay, Luciferase expression level was denominated with GAPDH expression used as housekeeping gene. Mean±SEM (n=5) *** p<0.0001 by t test.
# We also studied whether detection of luciferase mRNA can be used to detect as a readout of TH action in the generated transgenic model. […] TaqMan qPCR was performed on a ViiA 7 Real-Time PCR System (Life Technologies) according to the instructions of the manufacturer. In short, reverse transcription was performed with High Capacity cDNA Reverse Transcriptase Kit (Applied Biosystems by Life Technologies) and concentration of the cDNA was determined using the Qubit 2.0 Fluorometer with the Qubit ssDNA Assay Kit (Life Technologies). A custom Luciferase coding probe was used along with a commercially available probe for Glyceraldehyde-3-phosphate dehydrogenase (GAPDH), later used as housekeeping gene.
# [2] = system: thyroid hormone receptor isoform specific action (TRβ dominant liver, TRα dominant heart; Luciferase reporter); experiment: Testing TR isoform specific agonists: Luciferase activity in liver and heart of line #4 with decreased endogenous thyroid hormone; assay type: in vivo, mouse
# Experimental: FIG. 7. The transgenic mouse model is capable to detect thyroid hormone receptor isoform specific T3 actions. […] Mean±SEM (n=5) ** p<0.01 by t test.
# We decreased the endogenous thyroid hormone levels in line #4 by administering methimazole and perchlorate (0.1% methimazole, 0.5% perchlorate) in the drinking water followed by the i.p. injection of 1.53 nM/g BW of GC-24, a TRβ specific agonist (35). Luciferase activity assay was performed using our established protocol (34) modified for tissue samples, that included treatment of mouse tissue with liquid nitrogen, followed by sonication. In vivo Luciferase imaging has been performed on an IVIS Lumina II In vivo Imaging System (PerkinElmer Waltham, Mass., USA) according to the instructions of the manufacturer.
# [3] = system: TH action in live animals (Luciferase reporter); experiment: In vivo bioluminescence imaging of Luciferase in live line #4 mice; parameters: species or system mouse; conditions: 1 μg/g BW T3 i.p., luciferin 24 h later
# Experimental: Mean±SEM (n=4) ** p<0.01 **p<0.0001 by t test.
# After 15 min, mice were anesthetized with ketamine followed by detection with […] In vivo Imaging System (PerkinElmer Waltham, Mass., USA).
# [4] = system: THAIC construct in HEK293 cells with mouse TRα; experiment: Luciferase promoter assay in HEK293 cells transfected with THAIC and mouse TRα plasmid; assay type: cell-based, human; conditions: HEK293 transfected with THAIC, SB100 and mouse TRα plasmid; 100 nM T3
# Experimental: The THAIC construct was transfected to the human HEK293 cells along with a pCMV(CAT)T7-SB100 Sleeping Beauty transposon expressing vector and a mouse TRα encoding plasmid. Transfection and cell culturing of HEK293 cells was performed according to our established protocol (36). (FIG. 10)
# (B) We also used zeocin-assisted selection and obtained cultures stably expressing Luciferase and generated the HEK293-THAIC cell line stably expressing the TH action indicator construct of the THAM model. The reporter of the cell line is responsive to TH in a TR dependent manner.
# [5] = system: thyroid hormone (TH) action (3xTRE-TK driven Luciferase reporter); experiment: Luciferase activity (luciferase assay) in tissues of THAIM line #4 mice; assay type: in vivo, mouse; conditions: for Fold (mean ± SEM), induced/basal Luciferase activity / induced Luciferase activity: line #4, T4 5 ug/mouse/day for 3 days i.p.
# Experimental: (§1) (A, B, C) T4 treatment (5 ug/mouse/day for 3 days; i.p.) in mouse lines #4, 18, and 23. […] All experiments were performed on homozygote males.
# (§2) Unilateral denervation of sympathetic nerves innervating the iBAT has been performed as described in (32). Measurement of the activity of type 2 deiodinase was performed according to the American Thyroid Association Guide to investigating thyroid hormone economy and action in rodent and cell models (33)). THAIM #4 mice underwent unilateral denervation of sympathetic nerves innervating the BAT. Luciferase activity assay was performed using our established protocol (34) modified for tissue samples.
# [6] = system: thyroid hormone (TH) action (3xTRE-TK driven Luciferase reporter); experiment: Luciferase activity (luciferase assay) in tissues of THAIM line #23 mice; assay type: in vivo, mouse; conditions: for Fold (mean ± SEM), induced/basal Luciferase activity / induced Luciferase activity: line #23, T4 5 ug/mouse/day for 3 days i.p.
# Experimental: as §1, §2
# [7] = system: thyroid hormone (TH) action (3xTRE-TK driven Luciferase reporter); experiment: Luciferase activity (luciferase assay) in tissues of THAIM line #18 mice; assay type: in vivo, mouse
# Experimental: Characterization of the #4, 18 and 23 lines identified thyroid hormone (5 ug of T4/day/mouse for 3 days) induced induction of Luciferase expression in various tissues of homozygote males.
# Basal and thyroid hormone induced values and fold changes (induced/basal) of Luciferase activities in tissues of sacrificed animals (Mean±SEM, n=4). P values oft test (basal vs. induced) are provided, * represents statistical significance. (A, B, C) T4 treatment (5 ug/mouse/day for 3 days; i.p.) in mouse lines #4, 18, and 23. Basal activity levels in #18 are higher than other two lines. […] All experiments were performed on homozygote males.
# as §2, with “(FIG. 4). Unilateral” for “Unilateral”, “samples. […] This increase was abolished by denervation but TH action was maintained at room temperature (intact vs. denervated). (A). In the denervated samples, this was paralleled by abolished response of D2 activity to cold and maintenance of the basal D2 activity in the denervated lobe at room temperature (B).” for “samples.”
# [8] = Mandibular salivatory gland (MSG)
# [9] = line #18, Cerebellum, T4 5 ug/mouse/day for 3 days i.p.
# [10] = line #18, Cortex, T4 5 ug/mouse/day for 3 days i.p.
# [11] = line #18, HC, T4 5 ug/mouse/day for 3 days i.p.
# [12] = line #18, HT, T4 5 ug/mouse/day for 3 days i.p.
# [13] = line #18, MBH, T4 5 ug/mouse/day for 3 days i.p.
# [14] = line #18, Pit, T4 5 ug/mouse/day for 3 days i.p.
structure (smiles),measurement,setting,value
"N[C@@H](Cc1cc(I)c(Oc2ccc(O)c(I)c2)c(I)c1)C(=O)O [T3, 3,5,3′-triiodothyronine]",induction of luciferase mRNA in the pituitary,"[1]; 1 μg/g bw T3 i.p., GAPDH housekeeping",~50 fold
same,Luciferase mRNA level in the pituitary,"[1]; T3-treatment, denominated with GAPDH",robustly increased
same,luciferase activity in both tissues (liver and heart),[2]; T3 administration,significant increase
same,reporter activity in the BAT and intestine (in vivo imaging),[3],very intense increase
same,reporter activity in the mandibular salivary gland (MSG) and skin of the tail and foot pads (in vivo imaging),[3],up-regulated
same,induction of Luciferase expression,[4],approximately 4 fold
"N[C@@H](Cc1cc(I)c(Oc2cc(I)c(O)c(I)c2)c(I)c1)C(=O)O [T4, thyroxine]","Fold (mean ± SEM), induced/basal Luciferase activity",[5]; Bone,2.2 ± 0.18 Fold
same,induced Luciferase activity,[5]; Bone,0.066 RLU/mg protein
same,"Fold (mean ± SEM), induced/basal Luciferase activity",[5]; Cerebellum (CER),2.3 ± 0.41 Fold
same,induced Luciferase activity,[5]; Cerebellum (CER),2.162 RLU/mg protein
same,"Fold (mean ± SEM), induced/basal Luciferase activity",[5]; Cortex (CTX),1.9 ± 0.30 Fold
same,induced Luciferase activity,[5]; Cortex (CTX),0.359 RLU/mg protein
same,"Fold (mean ± SEM), induced/basal Luciferase activity",[5]; Heart,8.5 ± 0.31 Fold
same,induced Luciferase activity,[5]; Heart,0.030 RLU/mg protein
same,"Fold (mean ± SEM), induced/basal Luciferase activity",[5]; Hippocampus (HC),1.9 ± 0.03 Fold
same,induced Luciferase activity,[5]; Hippocampus (HC),0.116 RLU/mg protein
same,"Fold (mean ± SEM), induced/basal Luciferase activity",[5]; Hypothalamus (HT),1.3 ± 0.08 Fold
same,induced Luciferase activity,[5]; Hypothalamus (HT),0.488 RLU/mg protein
same,"Fold (mean ± SEM), induced/basal Luciferase activity",[5]; Intestine,2.1 ± 0.30 Fold
same,induced Luciferase activity,[5]; Intestine,9.480 RLU/mg protein
same,"Fold (mean ± SEM), induced/basal Luciferase activity",[5]; Liver,1.9 ± 0.14 Fold
same,induced Luciferase activity,[5]; Liver,0.005 RLU/mg protein
same,"Fold (mean ± SEM), induced/basal Luciferase activity",[5]; [8],7.6 ± 2.60 Fold
same,induced Luciferase activity,[5]; [8],0.399 RLU/mg protein
same,"Fold (mean ± SEM), induced/basal Luciferase activity",[5]; Mediobasal Hypothalamus (MBH),1.8 ± 0.20 Fold
same,induced Luciferase activity,[5]; Mediobasal Hypothalamus (MBH),0.368 RLU/mg protein
same,"Fold (mean ± SEM), induced/basal Luciferase activity",[5]; Muscle,11.2 ± 5.7 Fold
same,induced Luciferase activity,[5]; Muscle,0.276 RLU/mg protein
same,"Fold (mean ± SEM), induced/basal Luciferase activity",[5]; Pituitary (Pit),2.3 ± 0.16 Fold
same,induced Luciferase activity,[5]; Pituitary (Pit),0.791 RLU/mg protein
same,"Fold (mean ± SEM), induced/basal Luciferase activity",[5]; Skin,4.0 ± 0.76 Fold
same,induced Luciferase activity,[5]; Skin,2.798 RLU/mg protein
same,"Fold (mean ± SEM), induced/basal Luciferase activity",[5]; Testicle,0.8 ± 0.06 Fold
same,induced Luciferase activity,[5]; Testicle,4.09 RLU/mg protein
same,"Fold (mean ± SEM), induced/basal Luciferase activity",[5]; Thyroid,1.5 ± 0.07 Fold
same,induced Luciferase activity,[5]; Thyroid,0.176 RLU/mg protein
same,"Fold (mean ± SEM), induced/basal Luciferase activity",[5]; iBAT,64.6 ± 8.1 Fold
same,induced Luciferase activity,[5]; iBAT,1.820 RLU/mg protein
same,induction of Luciferase expression in the BAT,"[5]; line #4 homozygote males, 5 ug of T4/day/mouse for 3 days",striking response
same,"Fold (mean ± SEM), induced/basal Luciferase activity",[6]; Bone,0.9 ± 0.56 Fold
same,induced Luciferase activity,[6]; Bone,0.011 RLU/mg protein
same,"Fold (mean ± SEM), induced/basal Luciferase activity",[6]; CER,1.9 ± 0.28 Fold
same,induced Luciferase activity,[6]; CER,0.023 RLU/mg protein
same,"Fold (mean ± SEM), induced/basal Luciferase activity",[6]; CTX,1.8 ± 0.21 Fold
same,induced Luciferase activity,[6]; CTX,0.065 RLU/mg protein
same,"Fold (mean ± SEM), induced/basal Luciferase activity",[6]; HC,1.1 ± 0.32 Fold
same,induced Luciferase activity,[6]; HC,0.040 RLU/mg protein
same,"Fold (mean ± SEM), induced/basal Luciferase activity",[6]; HT,2.7 ± 1.35 Fold
same,induced Luciferase activity,[6]; HT,0.144 RLU/mg protein
same,"Fold (mean ± SEM), induced/basal Luciferase activity",[6]; Heart,1.0 ± 0.47 Fold
same,induced Luciferase activity,[6]; Heart,0.003 RLU/mg protein
same,"Fold (mean ± SEM), induced/basal Luciferase activity",[6]; Liver,1.7 ± 0.19 Fold
same,induced Luciferase activity,[6]; Liver,0.004 RLU/mg protein
same,"Fold (mean ± SEM), induced/basal Luciferase activity",[6]; MBH,1.7 ± 0.29 Fold
same,induced Luciferase activity,[6]; MBH,0.240 RLU/mg protein
same,"Fold (mean ± SEM), induced/basal Luciferase activity",[6]; Muscle,0.7 ± 0.18 Fold
same,induced Luciferase activity,[6]; Muscle,0.003 RLU/mg protein
same,"Fold (mean ± SEM), induced/basal Luciferase activity",[6]; Pit,8.8 ± 0.62 Fold
same,induced Luciferase activity,[6]; Pit,16.926 RLU/mg protein
same,"Fold (mean ± SEM), induced/basal Luciferase activity",[6]; iBAT,7.2 ± 1.54 Fold
same,induced Luciferase activity,[6]; iBAT,0.038 RLU/mg protein
same,response of Luciferase expression in the pituitary and hypothalamus,"[6]; line #23 homozygote males, 5 ug of T4/day/mouse for 3 days",intense response
same,"Fold (mean ± SEM), induced/basal Luciferase activity",[7]; [9],1.8 ± 0.31 Fold
same,induced Luciferase activity,[7]; [9],0.063 RLU/mg protein
same,"Fold (mean ± SEM), induced/basal Luciferase activity",[7]; [10],1.9 ± 1.18 Fold
same,induced Luciferase activity,[7]; [10],2.586 RLU/mg protein
same,"Fold (mean ± SEM), induced/basal Luciferase activity",[7]; [11],2.1 ± 0.25 Fold
same,induced Luciferase activity,[7]; [11],3.756 RLU/mg protein
same,"Fold (mean ± SEM), induced/basal Luciferase activity",[7]; [12],2.8 ± 0.35 Fold
same,induced Luciferase activity,[7]; [12],1.589 RLU/mg protein
same,Luciferase activity (basal and induced),"[7]; line #18, Liver (cell also covers Heart, iBAT, Bone, Muscle, MSG, Thyroid, Testicle, Intestine), T4 5 ug/mouse/day for 3 days i.p.",no expression
same,"Fold (mean ± SEM), induced/basal Luciferase activity",[7]; [13],2.2 ± 0.25 Fold
same,induced Luciferase activity,[7]; [13],0.602 RLU/mg protein
same,"Fold (mean ± SEM), induced/basal Luciferase activity",[7]; [14],8.2 ± 0.36 Fold
same,induced Luciferase activity,[7]; [14],0.540 RLU/mg protein
same,response of Luciferase expression in the pituitary,"[7]; line #18 homozygote males, 5 ug of T4/day/mouse for 3 days",intense response
Cc1cc(OCC(=O)O)cc(C)c1Cc1ccc(O)c(Cc2ccccc2)c1 [GC-24],Luciferase activity in heart,"[2]; i.p. 1.53 nM/g BW, after 24 hours, TRα isoform dominant heart",did not change; also recorded: no significant change
same,Luciferase activity in liver,"[2]; i.p. 1.53 nM/g BW, after 24 hours, TRβ isoform dominant liver",significantly increased
